Measurements published in PMC9444293 (Investigative Radiology, 2022).
Like-named read-outs stand apart in the source and are kept apart here. Marks after values point to notes of the source that are not given here.

Key:
[1] = Solubility in buffer solution; format: physicochemical; conditions: buffer 10 mM Tris-HCl, pH 7.4, room temperature (20°C), 24 hours
Partition coefficient = format: physicochemical; conditions: pH 7.4, room temperature
[2] = Osmolality of the formulation; format: physicochemical; conditions: formulation 0.3 mol Gd/L
[3] = Viscosity of the formulation; format: physicochemical; conditions: formulation 0.3 mol Gd/L
r1-relaxivity at 1.41 T = format: physicochemical, human; conditions: for r1-Relaxivity in Human Plasma at 37°C, 1.5 T (per molecule): pH 7.4, per molecule
[4] = r1-relaxivity at 3.0 T in human plasma; format: physicochemical; conditions: for r1-Relaxivity in Human Plasma at 37°C, 3.0 T (per Gd): pH 7.4, per Gd; for r1-Relaxivity in Human Plasma at 37°C, 3.0 T (per molecule): pH 7.4, per molecule
[5] = Nuclear magnetic relaxation dispersion; format: physicochemical; conditions: 37°C
[6] = format: physicochemical; conditions: 37°C, pH 7.4, 21 days (3 weeks)
[7] = format: physicochemical; conditions: after 3 days
plasma proteins [8] = assay: Protein binding in rat plasma, equilibrium dialysis; format: in vitro ADME; conditions: 3 μmol Gd/L, 37°C, 2 hours
plasma proteins [9] = assay: Protein binding in human plasma, equilibrium dialysis; format: in vitro ADME; conditions: 3 μmol Gd/L, 37°C, 2 hours
[10] = Blood-to-plasma partition ratio; format: in vitro ADME; conditions: 6 human donors, 0.25 mmol Gd/L, 60 minutes, 37°C, mean ± SD
human hepatocytes = assay: Metabolism in human hepatocytes; format: in vitro ADME; conditions: 2.5 μmol/L (10 μmol Gd/L), 4 hours
rat hepatocytes = assay: Metabolism in rat hepatocytes; format: in vitro ADME; conditions: 2.5 μmol/L (10 μmol Gd/L), 4 hours
[11] = HPLC-ICP-MS analysis of rat urine for metabolites; format: in vivo; conditions: rat urine up to 6 hours after single IV 0.1 mmol Gd/kg bw
[12] = test system: GS9L (rat glioblastoma) brain tumors; assay: Contrast-enhanced MRI of GS9L brain tumors in rats; format: in vivo; conditions: GS9L rats n = 4, 1.5 T, 5 minutes p.i., both 0.1 mmol Gd/kg bw, intraindividual
[13] = Number of inner sphere water molecules; format: physicochemical; conditions: per Gd
[14] = IV 0.1 mmol Gd/kg bw
[15] = rat
[16] = rat, 3-compartment model, listed as BAY 1747846
[17] = 7 days after single IV 0.1 mmol Gd/kg bw
[18] = 7 days after single IV 0.1 mmol Gd/kg bw, LLOQ 0.05

CC(C(=O)NCC(=O)NCC(CNC(=O)CNC(=O)C(C)N1CCN(CC(=O)[O-])CCN(CC(=O)[O-])CCN(CC(=O)[O-])CC1)(CNC(=O)CNC(=O)C(C)N1CCN(CC(=O)[O-])CCN(CC(=O)[O-])CCN(CC(=O)[O-])CC1)CNC(=O)CNC(=O)C(C)N1CCN(CC(=O)[O-])CCN(CC(=O)[O-])CCN(CC(=O)[O-])CC1)N1CCN(CC(=O)[O-])CCN(CC(=O)[O-])CCN(CC(=O)[O-])CC1.[Gd+3].[Gd+3].[Gd+3].[Gd+3] (stereo not shown) [Gadoquatrane, tetragadolinium [4,10-bis(carboxylatomethyl)-7-{3,6,12,15-tetraoxo-16-[4,7,10-tris-(carboxyl-atomethyl)-1,4,7,10-tetraazacyclododecan-1-yl]-9,9-bis({[({2-[4,7,10-tris-(carboxylatomethyl)-1,4,7,10-tetraazacyclododecan-1-yl]propanoyl}amino)acetyl]-amino}methyl)-4,7,11,14-tetraazahepta-decan-2-yl}-1,4,7,10-tetraazacyclododecan-1-yl]acetate]
Solubility [1]: 1.43 mol Gd/L
Log P (1-Butanol/Buffer) (Partition coefficient): −4.32
Osmolality at 37°C [2]: 294 (iso-osmolar to blood) mosmol/kg H2O
Osmolality at 37°C ([2]; listed as gadoquatrane): 294 mosmol/kg H2O
Viscosity at 37°C [3]: 1.22 mPa·s
r1-Relaxivity in Human Plasma at 37°C, 1.5 T (per Gd) (r1-relaxivity at 1.41 T; 60 MHz (1.41 T), 37°C, pH 7.4, per Gd, mean ± SD, n = 6 batches): 11.8 ± 0.3 mM⁻¹ s⁻¹
r1-Relaxivity in Human Plasma at 37°C, 1.5 T (per molecule) (r1-relaxivity at 1.41 T; 60 MHz (1.41 T), 37°C): 47.2 ± 1.0 mM⁻¹ s⁻¹
r1-Relaxivity in Human Plasma at 37°C, 1.5 T (per molecule) (r1-relaxivity at 1.41 T; 60 MHz (1.41 T), 37°C, listed as gadoquatrane): 47.2 mM⁻¹ s⁻¹
r1-relaxivity in human plasma, fold higher per Gd compared with established GBCAs (r1-relaxivity at 1.41 T; human plasma, per Gd, vs established (m)GBCAs): more than 2 fold
r1-Relaxivity in Human Plasma at 37°C, 3.0 T (per Gd) [4]: 10.5 ± 0.3 mM⁻¹ s⁻¹
r1-Relaxivity in Human Plasma at 37°C, 3.0 T (per Gd) ([4]; listed as gadoquatrane): 10.5 mM⁻¹ s⁻¹
r1-Relaxivity in Human Plasma at 37°C, 3.0 T (per molecule) [4]: 41.9 ± 0.6 mM⁻¹ s⁻¹
r1-Relaxivity in Human Plasma at 37°C, 3.0 T (per molecule) ([4]; listed as gadoquatrane): 41.9 mM⁻¹ s⁻¹
NMRD r1-relaxivity per Gd, fold higher compared with gadobutrol, in human plasma ([5]; human plasma, up to 200 MHz (4.7 T)): 2 fold
NMRD r1-relaxivity per Gd, fold higher compared with gadobutrol, in water ([5]; water, 20–200 MHz (0.47–4.7 T)): ~ 3 fold
Total Gd release after 21 days in human serum [6]: no release of Gd^3+
Decrease of the T1 relaxation rates (R1) in zinc transmetallation assay [7]: no Gd^3+ release
Decrease of the T1 relaxation rates (R1) in zinc transmetallation assay ([7]; listed as gadoquatrane): no change
Free fraction in plasma (fraction unbound) (plasma proteins [8]): 93%
Free fraction in plasma (fraction unbound) (plasma proteins [9]): 96%
Blood-to-plasma ratio [10]: 0.62 ± 0.06
In vitro uptake or metabolic degradation in hepatocytes (human hepatocytes): No in vitro uptake or metabolic degradation
In vitro uptake or metabolic degradation in hepatocytes (rat hepatocytes): No in vitro uptake or metabolic degradation
Metabolic stability / formation of metabolites in urine [11]: high metabolic stability and no hint of formation of metabolites
CNR (tumor-to-brain) compared with gadobutrol [12]: clearly higher CNR
No. Inner Sphere Water Molecules (q) [13]: q = 1
No. Inner Sphere Water Molecules (q) ([13]; listed as gadoquatrane): 1
AUC^∞ ([14]; rat plasma): 183 ± 11 (5.8%) μmol·h/L
γ-AUC ([14]; rat plasma): 1 % of AUC^∞
γ-AUC ([14]; rat plasma, listed as BAY 1747846): 1.2 % of AUC^∞
Clplasma ([14]; rat): 0.55 ± 0.03 (5.8%) L/h/kg
Vss ([14]; rat): 0.33 ± 0.05 (14%) L/kg
α t1/2 ([14]; rat, 3-compartment model, mean estimate ± SD (CV%)): 6.3 ± 1.5 (24%) min
β t1/2 [14, 16]: 25 ± 1.6 (6.4%) min
γ t1/2 [14, 16]: 13 ± 2.9 (22%) h
Gadolinium concentration, Bone marrow [15, 17]: 0.413 ± 0.048 nmol Gd/g wet tissue
Gadolinium concentration, Carcass [15, 17]: 0.693 ± 0.126 nmol Gd/g wet tissue
Gadolinium concentration, Heart [15, 17]: 0.133 ± 0.014 nmol Gd/g wet tissue
Gadolinium concentration, Intestine [15, 17]: 0.316 ± 0.120 nmol Gd/g wet tissue
Gadolinium concentration, Kidney [15, 17]: 20.3 ± 1.37 nmol Gd/g wet tissue
Gadolinium concentration, Liver [15, 17]: 0.564 ± 0.065 nmol Gd/g wet tissue
Gadolinium concentration, Lung [15, 17]: 0.359 ± 0.024 nmol Gd/g wet tissue
Gadolinium concentration, Mesenterial lymph nodes [15, 17]: 1.20 ± 0.336 nmol Gd/g wet tissue
Gadolinium concentration, Muscle [15, 17]: 0.119 ± 0.021 nmol Gd/g wet tissue
Gadolinium concentration, Skin [15, 17]: 0.271 ± 0.044 nmol Gd/g wet tissue
Gadolinium concentration, Spleen [15, 17]: 0.654 ± 0.175 nmol Gd/g wet tissue
Gadolinium concentration, Stomach [15, 17]: 0.182 ± 0.023 nmol Gd/g wet tissue
Gadolinium concentration, Blood [15, 18]: <0.05* nmol Gd/g wet tissue
Gadolinium concentration, Brain [15, 18]: <0.08‡ nmol Gd/g wet tissue
Gadolinium concentration, Bone ([15]; femur, 7 days after single IV 0.1 mmol Gd/kg bw): 0.470 ± 0.201 nmol Gd/g wet tissue
Amount of Gd recovered in Feces, 0–5 d ([15]; in vivo, iv): 1.35% ± 0.6%
Amount of Gd recovered in Urine, 0–1 d ([15]; in vivo, iv): 96.4% ± 3.8%
Amount of Gd recovered in Urine, 0–5 d ([15]; in vivo, iv): 96.9% ± 3.7%
Total recovery of Gd, 0–7 d ([15]; in vivo, iv): 98.8% ± 6.2%
Excreted within 7 days ([15]; single IV 0.1 mmol Gd/kg bw): > 99 % of the injected dose
